Results published in patent US10774124B2, “Protease resistant mutants of stromal cell derived factor-1 in the repair of tissue damage” (THE BRIGHAM AND WOMEN'S HOSPITAL, INC., priority 2006, dated 2020).
Where two headings read alike, the source gives them in different places. No end group written: not given here.

Tests used:
Jurkat T cells = test: Jurkat T cell migration assay; assay type: cell-based; conditions: for activity on T-cell migration: compared to native SDF-1; for activity in promoting T cell migration: concentration of 100 nM, versus unmutated SDF-1
Method: Cells from a 4-L growth were lysed in 300 ml lysis buffer (6M Guanidine, 20 mM phosphate (pH 7.8), 500 mM NaCl) and homogenized. Debris is collected by centrifugation at 3000 g. The first purification step consisted of capture of the poly-histidine tag present in the SUMO-SDF-1α fusion protein with Nickel-NTA. Nickel-NTA resin was washed with wash buffer (8M Urea, 500 mM NaCl, 20 mM phosphate (pH 6.2)) and the bound protein was eluted at pH 4. Further purification and oxidative refolding were performed on a Cation Exchange HPLC column. The sample was adjusted to binding buffer (8M Urea, 30 mM 2-mercaptoethanol, 1 mM EDTA, 50 mM Tris pH8) and loaded on the HPLC column. Refolding of Sumo-SDF-1 was performed on the column with a 2 h run of refolding buffer (50 mM Tris pH8, 75 mM NaCl, 0.1 mM reduced Glutathione and 0.1 mM oxidized Glutathione). Sumo-SDF-1 was eluted with a step gradient (0.5 to 1M NaCl) and concentrated. The SUMO-SDF-1 fusion protein was cleaved by Sumo Protease 1 (IU/50 μg protein) in 50 mM Tris pH 8.0, 500 mM NaCl. The sample was adjusted to 0.1% trifluoroacetic acid (TFA) and loaded on a C18 Reversed Phase HPLC column for the final purification step. The column was subjected to a linear gradient from 30 to 40% acetonitrile in 0.1% TFA. The fractions containing SDF-1 were lyophilized and resuspended. Activity of purified SDF-1 was tested by migration of Jurkat T-lymphocyte cell line.
The mutated forms of SDF-1 were examined in an assay of migration of Jurkat T cells at a concentration of 100 nM.
Migration experiments were performed with the Jurkat T-lymphocyte cell line. […] Therefore, if 500 times higher concentrations were used compared to full-length protein, the same migratory response of T-lymphocytes should be observed. […] This is a similar shift to that seen between native SDF-1 and SDF-1(S4V).

MMP-2 [1] = target: T1, MMP-2 (Homo sapiens, UniProt P08253); test: MMP-2 cleavage, incubation product examined by SDS-PAGE; assay type: biochemical; conditions: for cleavage by MMP-2 (SDS-PAGE): 2 nmole peptide incubated with MMP-2 for 1 h at RT
T1 sequence (P08253 110-660): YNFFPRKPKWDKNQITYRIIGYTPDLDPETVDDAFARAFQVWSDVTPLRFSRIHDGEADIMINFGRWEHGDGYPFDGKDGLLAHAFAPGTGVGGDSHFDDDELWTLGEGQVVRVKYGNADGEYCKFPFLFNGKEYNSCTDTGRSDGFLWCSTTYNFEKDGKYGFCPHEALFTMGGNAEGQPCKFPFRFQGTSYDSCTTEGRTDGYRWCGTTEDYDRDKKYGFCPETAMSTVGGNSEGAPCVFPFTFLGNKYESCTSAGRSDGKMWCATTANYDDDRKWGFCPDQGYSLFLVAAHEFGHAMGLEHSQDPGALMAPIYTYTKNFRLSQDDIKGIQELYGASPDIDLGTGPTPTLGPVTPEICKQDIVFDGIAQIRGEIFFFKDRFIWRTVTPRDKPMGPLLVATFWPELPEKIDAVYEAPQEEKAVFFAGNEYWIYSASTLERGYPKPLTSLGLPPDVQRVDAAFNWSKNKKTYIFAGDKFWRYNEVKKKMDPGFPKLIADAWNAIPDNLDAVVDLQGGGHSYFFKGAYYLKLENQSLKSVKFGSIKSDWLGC
Method: The susceptibility of the peptides to cleavage by MMP-2 was determined by incubating the mutants with the enzyme for one hour and then examining the incubation product by SDS-PAGE.
Cleavage experiments of the peptides with MMP-2 were performed: 2 nmole of SDF-1 17AA, SDF-1(S4V) 17AA, and SDF-1(L5P) 17AA were incubated with MMP-2 for 1 h at RT. Proteins were run on an SDS-PAGE showing cleavage of SDF-1 17AA, but not of SDF-1(S4V) 17AA or SDF-1(L5P) 17AA. Thus, these truncated proteins may be useful therapeutically, as they are still bioactive and also MMP-2 resistant.

MMP-2 [2] = target: T1, MMP-2; test: Jurkat T-cell migration assay after MMP-2 incubation; assay type: cell-based
[3] = test system: T lymphocytes and CEM cells; conditions: cited from earlier work; for EC50: read-out: half-maximal chemoattractant activity; for induce chemotaxis: T lymphocytes and CEM cells; for fold less potent than SDF-1: chemoattractant activity, relative to native SDF-1
[4] = test system: T lymphocytes and CEM cells; conditions: cited from earlier work
[5] = target: CXC chemokine receptor 4 (CXCR4) (Homo sapiens, UniProt P61073); conditions: cited from earlier work
CXC chemokine receptor 4 (CXCR4), sequence (P61073 whole entry): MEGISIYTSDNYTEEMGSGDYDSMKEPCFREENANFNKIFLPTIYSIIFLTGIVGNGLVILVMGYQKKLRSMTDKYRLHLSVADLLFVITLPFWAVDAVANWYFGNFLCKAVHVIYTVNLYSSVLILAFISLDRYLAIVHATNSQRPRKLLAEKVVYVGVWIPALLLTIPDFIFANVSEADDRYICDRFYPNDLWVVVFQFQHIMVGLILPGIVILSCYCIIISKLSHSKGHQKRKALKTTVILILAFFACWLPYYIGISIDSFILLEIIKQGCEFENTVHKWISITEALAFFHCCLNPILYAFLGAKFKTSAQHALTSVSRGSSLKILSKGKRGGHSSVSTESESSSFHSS

Row | Substance | activity on T-cell migration (Jurkat T cells) | activity in promoting T cell migration (Jurkat T cells) | induce chemotaxis [3] | induce intracellular calcium [4] | bind to CXCR4 [5] | other results
1 | SDF-1(L5E): SDF-1 mutant, leucine at position 5 changed to glutamic acid | minimal activity | greatly reduced |  |  |  | 
2 | SDF-1(L5W): SDF-1 mutant, leucine at position 5 changed to tryptophan | minimal activity | greatly reduced |  |  |  | 
3 | SDF-1(L5P): SDF-1 mutant, leucine at position 5 changed to proline, SEQ ID NO:56 | bioactivity comparable to native SDF-1 | retained most of the activity of unmutated SDF-1 |  |  |  | 
4 | stromal cell derived factor-1 [SDF-1] |  |  |  |  |  | cleavage by MMP-2 (positional shift on SDS-PAGE) (MMP-2 [1]; incubated with the enzyme for one hour): positional shift indicative of cleavage; chemoattractant activity after MMP-2 incubation (MMP-2 [2]): reduce the chemoattractant activity; EC50 [3]: 5 nM
5 | SDF-1(S4V): SDF-1 mutant, serine at position 4 changed to valine, SEQ ID NO:54 | bioactivity comparable to native SDF-1 | retained most of the activity of unmutated SDF-1 |  |  |  | chemoattractant activity after MMP-2 incubation (MMP-2 [2]): not; chemoattractant activity after MMP-2 incubation (MMP-2 [2]; listed as S4V variant of SDF-1): resistant to activation by MMP-2
6 | SCR: GIVGPL (SEQ ID NO:58), linker sequence, a scrambled version of the MMP-2 cleavage site MCS (listed as Homo sapiens) |  |  |  |  |  | MMP-2 cleavage of linker sequence (MMP-2 [1]; rate compared with MCS): undergo MMP-2 cleavage, although at a slower rate than MCS
7 | 1-8: peptide of N-terminal residues 1-8 of SDF-1 (KPVSLSYR; UniProt P48061 22-29, looked up, fragment) |  |  | induce | induce | bind | 
8 | SDF-1(L5P) 17AA: KPVSPSYRCPCRFFESH (SEQ ID 66) (listed as Homo sapiens) |  |  |  |  |  | times less potent than SDF-1 17AA without mutation (Jurkat T cells; Jurkat T-lymphocyte migration): three times less potent; cleavage by MMP-2 (SDS-PAGE) (MMP-2 [1]): not
9 | 1-9 dimer: dimer of the SDF-1 1-9 peptide (KPVSLSYRC; also: dimer; UniProt P48061 22-30, looked up, fragment) |  |  | induce | induce | bind | fold less potent than SDF-1 [3]: 100 fold; EC50 [3]: 500 nM
10 | 1-9: peptide of N-terminal residues 1-9 of SDF-1 (KPVSLSYRC; UniProt P48061 22-30, looked up, fragment) |  |  | induce | induce | bind | fold less potent than SDF-1 [3]: 3600 fold
11 | 1-17: peptide of N-terminal residues 1-17 of SDF-1 (KPVSLSYRCPCRFFESH; UniProt P48061 22-38, looked up, fragment) |  |  | induce | induce | bind | fold less potent than SDF-1 [3]: 400 fold
12 | SDF-1 17AA: KPVSLSYRCPCRFFESH (SEQ ID 64), first 17 amino acids of native SDF-1 (listed as Homo sapiens) |  |  |  |  |  | times less potent than native SDF-1 (Jurkat T cells; Jurkat T-lymphocyte migration): 500 times; cleavage by MMP-2 (SDS-PAGE) (MMP-2 [1]): cleavage
13 | SDF-1(S4V) 17AA: KPVVLSYRCPCRFFESH (SEQ ID 65) (listed as Homo sapiens) |  |  |  |  |  | times less potent than SDF-1 17AA without mutation (Jurkat T cells; Jurkat T-lymphocyte migration): three times less potent; cleavage by MMP-2 (SDS-PAGE) (MMP-2 [1]): not
